Source: ChEMBL document CHEMBL1201862, “PubChem BioAssay data set” (2004)
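A five-concentration, 48-hour dose response in 96-well plates underlies each endpoint, interpolated linearly between surrounding concentrations. GI50 is the concentration that inhibits growth by half.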 The source made the active and inactive calls. No stated cut-off is given here; in the data, active = GI50 up to about 1.1 µM and inactive = higher.

What was measured:
Test in all cases: DTP human tumour cell line panel, 48 h
SR = test system: SR
IGROV-1 = test system: IGROV-1
SK-MEL-28 = test system: SK-MEL-28
SW-620 = test system: SW-620
HCT-116 = test system: HCT-116
NCI-H226 = test system: NCI-H226
CAKI-1 = test system: CAKI-1
A498 = test system: A498
Malme-3M = test system: Malme-3M
SK-MEL-2 = test system: SK-MEL-2
K562 = test system: K562
HCC 2998 = test system: HCC 2998
SF-268 = test system: SF-268
COLO 205 = test system: COLO 205
CCRF-CEM = test system: CCRF-CEM
HT-29 = test system: HT-29

Measured: GI50

CCOC(=O)NC/C=C/CO
inactive: SR > 100 µM | IGROV-1 > 100 µM | SK-MEL-28 > 100 µM | SW-620 > 100 µM | HCT-116 > 100 µM | NCI-H226 > 100 µM | CAKI-1 > 100 µM | A498 > 100 µM | Malme-3M > 100 µM | SK-MEL-2 > 100 µM | K562 > 100 µM | HCC 2998 > 100 µM | SF-268 > 100 µM | COLO 205 > 100 µM | CCRF-CEM > 100 µM

CC1OC(CC2C=CCc3c(O)c4c(c(O)c32)C(=O)c2ccccc2C4=O)CC(NC(=O)C(F)(F)F)C1O (stereo not drawn)
inactive: SR 3.7 µM | IGROV-1 18.9 µM | SK-MEL-28 4.55 µM | SW-620 14.3 µM | HCT-116 3.13 µM | NCI-H226 13.7 µM | CAKI-1 7.55 µM | A498 4.69 µM | Malme-3M 3.12 µM | HT-29 14.4 µM | SK-MEL-2 6.87 µM | K562 4.85 µM | HCC 2998 29.4 µM | SF-268 10.3 µM | COLO 205 13.8 µM | CCRF-CEM 5.11 µM

CCC12C=CCN3CCC4(C(=C(C(=O)OC)[C@@H]1O)Nc1ccccc14)C32 (stereo partly drawn)
inactive: SR 1.78 µM | IGROV-1 1.83 µM | SK-MEL-28 1.95 µM | SW-620 1.72 µM | HCT-116 1.57 µM | NCI-H226 1.26 µM | CAKI-1 2.29 µM | A498 1.96 µM | Malme-3M 1.74 µM | HT-29 1.98 µM | SK-MEL-2 1.9 µM | K562 2.03 µM | HCC 2998 1.63 µM | SF-268 2.29 µM | COLO 205 1.81 µM | CCRF-CEM 1.76 µM

c1ccc(C(c2ccccc2)c2ccncc2)cc1
inactive: IGROV-1 > 100 µM | SK-MEL-28 > 100 µM | SW-620 > 100 µM | HCT-116 > 100 µM | NCI-H226 > 100 µM | CAKI-1 > 100 µM | A498 > 100 µM | Malme-3M > 100 µM | HT-29 75.9 µM | SK-MEL-2 > 100 µM | K562 > 100 µM | HCC 2998 61.7 µM | SF-268 > 100 µM | COLO 205 > 100 µM | CCRF-CEM > 100 µM

CC(O)C(NC(=O)c1ccccc1)C(=O)N(Cc1ccccc1)Cc1ccccc1 (stereo not drawn)
inactive: IGROV-1 > 100 µM | SK-MEL-28 > 100 µM | SW-620 > 100 µM | NCI-H226 > 100 µM | CAKI-1 18.2 µM | A498 69.3 µM | Malme-3M > 100 µM | HT-29 > 10 µM | SK-MEL-2 > 100 µM | K562 97.9 µM | HCC 2998 > 100 µM | SF-268 > 100 µM | COLO 205 > 100 µM | CCRF-CEM > 100 µM

CC(C)(C)c1ccc(OCCOCCOc2ccc(C(C)(C)C)cc2S(=O)(=O)Nc2ccc([N+](=O)[O-])cc2)c(S(=O)(=O)Nc2ccc([N+](=O)[O-])cc2)c1
inactive: IGROV-1 12.7 µM | SK-MEL-28 15.5 µM | SW-620 61.8 µM | HCT-116 4.86 µM | NCI-H226 47.8 µM | CAKI-1 9.31 µM | A498 8.15 µM | Malme-3M 83.9 µM | HT-29 7.38 µM | SK-MEL-2 8.07 µM | K562 6.21 µM | HCC 2998 8.73 µM | SF-268 8.45 µM | COLO 205 21.8 µM | CCRF-CEM 5.42 µM

Cc1cc2occ(-c3ccc(Cl)cc3)c2c(=O)o1
inactive: SR 38.1 µM | IGROV-1 > 100 µM | SK-MEL-28 > 100 µM | SW-620 > 100 µM | HCT-116 > 100 µM | NCI-H226 > 100 µM | CAKI-1 98.6 µM | A498 > 100 µM | Malme-3M > 100 µM | HT-29 > 100 µM | SK-MEL-2 > 100 µM | K562 > 100 µM | SF-268 > 100 µM | COLO 205 > 100 µM | CCRF-CEM > 100 µM

CCc1cccc(C(C)C)c1NC(=O)CCl
inactive: SR 71.4 µM | IGROV-1 > 100 µM | SK-MEL-28 > 100 µM | SW-620 > 100 µM | HCT-116 > 100 µM | NCI-H226 > 100 µM | CAKI-1 > 100 µM | Malme-3M > 100 µM | HT-29 > 100 µM | SK-MEL-2 > 100 µM | K562 > 100 µM | SF-268 > 100 µM | CCRF-CEM 37.1 µM

COc1ccc(OC)c(/C=N/N=C(\N)NO)c1
inactive: SR 45.2 µM | IGROV-1 29.6 µM | SK-MEL-28 75.7 µM | SW-620 24.3 µM | HCT-116 24.5 µM | NCI-H226 16.6 µM | CAKI-1 8.04 µM | A498 > 10 µM | Malme-3M 36.8 µM | HT-29 36.6 µM | SK-MEL-2 42.3 µM | K562 6.81 µM | SF-268 23.3 µM | COLO 205 10.6 µM | CCRF-CEM 16.6 µM

Cc1c(-c2coc(-c3ccc(Cl)cc3)n2)c(=O)n(-c2ccccc2)n1C
inactive: SR > 100 µM | IGROV-1 > 100 µM | SK-MEL-28 > 100 µM | HCT-116 > 100 µM | NCI-H226 > 100 µM | A498 > 100 µM | Malme-3M > 100 µM | HT-29 > 100 µM | SK-MEL-2 > 100 µM | HCC 2998 9.4 µM | SF-268 > 100 µM | COLO 205 > 100 µM | CCRF-CEM > 100 µM

Cc1ccc(Sc2ccccc2N)cc1
inactive: IGROV-1 37.7 µM | SK-MEL-28 67 µM | SW-620 49 µM | HCT-116 35.6 µM | NCI-H226 17.5 µM | CAKI-1 21.6 µM | A498 30.8 µM | Malme-3M 46.5 µM | HT-29 31.1 µM | SK-MEL-2 35.7 µM | K562 37.4 µM | HCC 2998 40.8 µM | SF-268 21 µM | COLO 205 40 µM | CCRF-CEM 23.2 µM

CCCCc1c2c(nc3c1CCc1cc(C=O)c(N)nc1-3)/C(=C/c1ccccc1)CCC2
inactive: SR 58.5 µM | IGROV-1 > 100 µM | SK-MEL-28 > 100 µM | SW-620 > 100 µM | HCT-116 > 100 µM | NCI-H226 > 100 µM | CAKI-1 > 100 µM | A498 19.9 µM | Malme-3M > 100 µM | HT-29 > 100 µM | SK-MEL-2 > 100 µM | K562 > 100 µM | HCC 2998 29.9 µM | SF-268 > 100 µM | COLO 205 17 µM | CCRF-CEM > 100 µM

O=C(Nc1nc2ncn(CCI)c2c(=O)[nH]1)c1ccccc1
inactive: SR > 100 µM | IGROV-1 > 100 µM | SK-MEL-28 > 100 µM | SW-620 > 100 µM | HCT-116 > 100 µM | NCI-H226 23.4 µM | CAKI-1 > 100 µM | A498 16 µM | Malme-3M > 100 µM | HT-29 > 100 µM | SK-MEL-2 > 53.5 µM | K562 > 100 µM | HCC 2998 > 100 µM | SF-268 21.5 µM | COLO 205 > 100 µM | CCRF-CEM > 100 µM

N#CC(C(=O)C(=O)Nc1c(Cl)cccc1Cl)c1ccccc1 (stereo not drawn)
inactive: SR > 10 µM | IGROV-1 > 10 µM | SK-MEL-28 > 10 µM | SW-620 > 10 µM | HCT-116 > 10 µM | NCI-H226 > 10 µM | CAKI-1 > 10 µM | A498 > 10 µM | Malme-3M > 10 µM | HT-29 > 10 µM | SK-MEL-2 > 10 µM | K562 > 10 µM | HCC 2998 > 10 µM | SF-268 > 10 µM | COLO 205 > 10 µM | CCRF-CEM > 10 µM

Cc1ccccc1NC(=O)C(=O)C(C(=O)c1ccccc1F)C1OC(=O)c2ccccc21 (stereo not drawn)
inactive: SK-MEL-28 16.5 µM | SW-620 34.9 µM | HCT-116 15 µM | NCI-H226 3.38 µM | CAKI-1 21.1 µM | A498 45.8 µM | Malme-3M 18.8 µM | HT-29 40.3 µM | SK-MEL-2 24.7 µM | K562 24.3 µM | HCC 2998 11.5 µM | SF-268 18.9 µM | COLO 205 21.3 µM | CCRF-CEM 10.6 µM

O=C(Nc1ccccc1[N+](=O)[O-])C(=O)C(C(=O)c1ccccc1-c1ccccc1)C1OC(=O)c2ccccc21 (stereo not drawn)
inactive: SR 8.43 µM | IGROV-1 23.7 µM | SK-MEL-28 18.2 µM | SW-620 18.5 µM | HCT-116 18.2 µM | NCI-H226 6.1 µM | CAKI-1 35.6 µM | A498 21.7 µM | Malme-3M 13 µM | HT-29 24 µM | SK-MEL-2 16.7 µM | K562 17.2 µM | HCC 2998 14.8 µM | SF-268 14.3 µM | COLO 205 16.1 µM | CCRF-CEM 13.5 µM

CC(=O)OC12C(C)=C(C)C(=O)N1c1ccccc1N2C(C)=O (stereo not drawn)
inactive: SR > 100 µM | IGROV-1 > 100 µM | SK-MEL-28 33.4 µM | SW-620 > 100 µM | HCT-116 > 100 µM | NCI-H226 > 100 µM | CAKI-1 > 100 µM | HT-29 > 100 µM | SK-MEL-2 > 100 µM | K562 > 100 µM | HCC 2998 > 100 µM | SF-268 > 100 µM | COLO 205 > 100 µM | CCRF-CEM > 100 µM

CC(=O)OC1CCC2C(=CCC3C2(C)C(=O)CC2(C)C(C4(C)OC(C(C)C)=CC4=O)C(O)CC32C)C1(C)C (stereo not drawn)
inactive: SR 28.4 µM | IGROV-1 62.4 µM | SW-620 41 µM | HCT-116 > 10 µM | NCI-H226 75 µM | CAKI-1 45 µM | A498 > 100 µM | Malme-3M 21.5 µM | HT-29 17.8 µM | SK-MEL-2 27.1 µM | K562 35.5 µM | SF-268 28.1 µM | COLO 205 56 µM | CCRF-CEM 31 µM
